{"source": "patent US12595255B2", "about": "“Heteroaryl-substituted imidazole derivatives” (Hoffmann-La Roche Inc., priority 2021, dated 2026)", "data": [{"test_system": "Acinetobacter baumannii ATCC17961", "assay": "Antimicrobial susceptibility testing: 90% growth inhibitory concentration (IC90) determination", "format": "cell-based", "conditions": "ATCC17961, 90% growth inhibitory concentration, Iso-Sensitest broth, OD 600 nm over 16 h, 35±2° C., read-out: ATCC 17961 IC90", "description": "(§1) Assay Procedures Antimicrobial Susceptibility Testing: 90% Growth Inhibitory Concentration (IC90) Determination\n(§2) The in vitro antimicrobial activity of the compounds was determined according to the following procedure:\n(§3) The assay used a 10-points Iso-Sensitest broth medium to measure quantitatively the in vitro activity of the compounds against Acinetobacter baumannii ATCC17961.\n(§4) Stock compounds in DMSO were serially twofold diluted (e.g. range from 50 to 0.097 μM final concentration) in 384 wells microtiter plates and inoculated with 49 μl the bacterial suspension in Iso-Sensitest medium to have a final cell concentration of ˜5×10^5 CFU/ml in a final volume/well of 50 μl/well. Microtiter plates were incubated at 35±2° C.\n(§5) Bacterial cell growth was determined with the measurement of optical density at λ=600 nm each 20 minutes over a time course of 16 h. Growth inhibition was calculated during the logarithmic growth of the bacterial cells with determination of the concentration inhibiting 50% (IC50) and 90% (IC90) of the growth.\n(§6) Table 1 provides the 90% growth inhibitory concentrations (IC90) in micromoles per liter of the compounds of present invention obtained against the strain Acinetobacter baumannii ATCC17961.", "units": {"IC90": "µM"}, "values": [{"compound": "Cc1n[nH]c2cc(F)c(-c3cnc(C(=O)Nc4ccc(C(=O)N5CCN(C(=O)C[C@@H]6CCNC6)CC5)c(Cl)c4)n3C)cc12", "note": "[Example A2, N-[3-chloro-4-[4-[2-[(3S)-pyrrolidin-3-yl]acetyl]piperazine-1-carbonyl]phenyl]-5-(6-fluoro-3-methyl-1H-indazol-5-yl)-1-methyl-imidazole-2-carboxamide]", "IC90": 0.46}, {"compound": "Cn1c(-c2ccc3[nH]nc(C(F)(F)F)c3c2)cnc1C(=O)Nc1ccc(C(=O)N2CCN(C(=O)C[C@@H]3CCNC3)CC2)c(Cl)c1", "note": "[Example A3, N-[3-chloro-4-[4-[2-[(3S)-pyrrolidin-3-yl]acetyl]piperazine-1-carbonyl]phenyl]-1-methyl-5-[3-(trifluoromethyl)-1H-indazol-5-yl]imidazole-2-carboxamide]", "IC90": 0.23}, {"compound": "Cn1c(-c2ccc(Cl)nc2Cl)cnc1C(=O)Nc1ccc(C(=O)N2CCN(C(=O)C3CCNCC3)CC2)c(Cl)c1", "note": "[Example A5, N-[3-chloro-4-[4-(piperidine-4-carbonyl)piperazine-1-carbonyl]phenyl]-5-(2,6-dichloro-3-pyridyl)-1-methyl-imidazole-2-carboxamide]", "IC90": 0.72}, {"compound": "CN(C)c1ccc(-c2cnc(C(=O)Nc3ccc(C(=O)N4CCN(C(=O)C5CCNCC5)CC4)c(Cl)c3)n2C)c(C(F)(F)F)n1", "note": "[Example A6, N-[3-chloro-4-[4-(piperidine-4-carbonyl)piperazine-1-carbonyl]phenyl]-5-[6-(dimethylamino)-2-(trifluoromethyl)-3-pyridyl]-1-methyl-imidazole-2-carboxamide]", "IC90": 0.31}, {"compound": "COc1ccc(-c2cnc(C(=O)Nc3ccc(C(=O)N4CCN(C(=O)C5CCNCC5)CC4)c(Cl)c3)n2C)c(OC)n1", "note": "[Example A7, N-[3-chloro-4-[4-(piperidine-4-carbonyl)piperazine-1-carbonyl]phenyl]-5-(2,6-dimethoxy-3-pyridyl)-1-methyl-imidazole-2-carboxamide]", "IC90": 0.46}, {"compound": "COc1cc(-c2cnc(C(=O)Nc3ccc(C(=O)N4CCN(C(=O)C5CCNCC5)CC4)c(Cl)c3)n2C)c(Cl)cn1", "note": "[Example A8, 5-(5-chloro-2-methoxy-4-pyridyl)-N-[3-chloro-4-[4-(piperidine-4-carbonyl)piperazine-1-carbonyl]phenyl]-1-methyl-imidazole-2-carboxamide]", "IC90": 0.57}, {"compound": "CN(C)c1ncc(-c2cnc(C(=O)Nc3ccc(C(=O)N4CCN(C(=O)C[C@@H]5CCNC5)CC4)c(Cl)c3)n2C)c(C(F)(F)F)n1", "note": "[Example A9, N-[3-chloro-4-[4-[2-[(3S)-pyrrolidin-3-yl]acetyl]piperazine-1-carbonyl]phenyl]-5-[2-(dimethylamino)-4-(trifluoromethyl)pyrimidin-5-yl]-1-methyl-imidazole-2-carboxamide]", "IC90": 0.58}, {"compound": "COc1ncc(-c2cnc(C(=O)Nc3ccc(C(=O)N4CCN(C(=O)C5CCNCC5)CC4)c(Cl)c3)n2C)c(C(F)(F)F)n1", "note": "[Example A10, N-[3-chloro-4-[4-(piperidine-4-carbonyl)piperazine-1-carbonyl]phenyl]-5-[2-methoxy-4-(trifluoromethyl)pyrimidin-5-yl]-1-methyl-imidazole-2-carboxamide]", "IC90": 1.4}, {"compound": "Cn1c(-c2c(Cl)ccc3[nH]ccc23)cnc1C(=O)Nc1ccc(C(=O)N2CCN(C(=O)C[C@@H]3CCNC3)CC2)c(Cl)c1", "note": "[Example A11, 5-(5-chloro-1H-indol-4-yl)-N-[3-chloro-4-[4-[2-[(3S)-pyrrolidin-3-yl]acetyl]piperazine-1-carbonyl]phenyl]-1-methyl-imidazole-2-carboxamide]", "IC90": 0.29}, {"compound": "Cn1c(-c2cccc3[nH]ccc23)cnc1C(=O)Nc1ccc(C(=O)N2CCN(C(=O)C3CCNCC3)CC2)c(Cl)c1", "note": "[Example A12, N-[3-chloro-4-[4-(piperidine-4-carbonyl)piperazine-1-carbonyl]phenyl]-5-(1H-indol-4-yl)-1-methyl-imidazole-2-carboxamide]", "IC90": 0.49}, {"compound": "Cn1c(-c2cccc3c2ccn3C)cnc1C(=O)Nc1ccc(C(=O)N2CCN(C(=O)C3CCNCC3)CC2)c(Cl)c1", "note": "[Example A13, N-[3-chloro-4-[4-(piperidine-4-carbonyl)piperazine-1-carbonyl]phenyl]-1-methyl-5-(1-methylindol-4-yl)imidazole-2-carboxamide]", "IC90": 1.1}, {"compound": "COc1ccc(-c2cnc(C(=O)Nc3ccc(C(=O)N4CCN(C(=O)C[C@@H]5CCNC5)CC4)c(Cl)c3)n2C)c(C(F)(F)F)n1", "note": "[Example A14, N-[3-chloro-4-[4-[2-[(3S)-pyrrolidin-3-yl]acetyl]piperazine-1-carbonyl]phenyl]-5-[6-methoxy-2-(trifluoromethyl)-3-pyridyl]-1-methyl-imidazole-2-carboxamide]", "IC90": 0.23}, {"compound": "COc1cc(Cl)c(-c2cnc(C(=O)Nc3ccc(C(=O)N4CCN(C(=O)C5CCNCC5)CC4)c(Cl)c3)n2C)cn1", "note": "[Example A15, 5-(4-chloro-6-methoxy-3-pyridyl)-N-[3-chloro-4-[4-(piperidine-4-carbonyl)piperazine-1-carbonyl]phenyl]-1-methyl-imidazole-2-carboxamide]", "IC90": 0.66}, {"compound": "COc1ccc(-c2cnc(C(=O)Nc3ccc(C(=O)N4CCN(C(=O)C5CCNCC5)CC4)c(Cl)c3)n2C)c(C(F)(F)F)n1", "note": "[Example A16, N-[3-chloro-4-[4-(piperidine-4-carbonyl)piperazine-1-carbonyl]phenyl]-5-[6-methoxy-2-(trifluoromethyl)-3-pyridyl]-1-methyl-imidazole-2-carboxamide]", "IC90": 0.28}, {"compound": "COc1ccc(-c2cnc(C(=O)Nc3ccc(C(=O)N4CCN(C(=O)[C@@H]5C[C@@H](O)CN5)CC4)c(Cl)c3)n2C)c(C(F)(F)F)n1", "note": "[Example A17, N-[3-chloro-4-[4-[(2S,4R)-4-hydroxypyrrolidine-2-carbonyl]piperazine-1-carbonyl]phenyl]-5-[6-methoxy-2-(trifluoromethyl)-3-pyridyl]-1-methyl-imidazole-2-carboxamide]", "IC90": 0.36}, {"compound": "COc1ccc(-c2cnc(C(=O)Nc3ccc(C(=O)N4CCN(C(=O)[C@@H]5[C@@H]6CNC[C@@H]65)CC4)c(Cl)c3)n2C)c(C(F)(F)F)n1", "note": "[Example A18, N-[4-[4-[(1R,5S)-3-azabicyclo[3.1.0]hexane-6-carbonyl]piperazine-1-carbonyl]-3-chloro-phenyl]-5-[6-methoxy-2-(trifluoromethyl)-3-pyridyl]-1-methyl-imidazole-2-carboxamide]", "IC90": 0.26}, {"compound": "COc1ccc(-c2cnc(C(=O)Nc3ccc(C(=O)N4CCN(C(=O)C5CCNCC5)CC4)c(Cl)c3)n2C)c(C(F)F)n1", "note": "[Example A19, N-[3-chloro-4-[4-(piperidine-4-carbonyl)piperazine-1-carbonyl]phenyl]-5-[2-(difluoromethyl)-6-methoxy-3-pyridyl]-1-methyl-imidazole-2-carboxamide]", "IC90": 0.91}, {"compound": "Cn1c(-c2ccc3c(c2)OCCO3)cnc1C(=O)Nc1ccc(C(=O)N2CCN(C(=O)C3CCNCC3)CC2)c(Cl)c1", "note": "[Example A20, N-[3-chloro-4-[4-(piperidine-4-carbonyl)piperazine-1-carbonyl]phenyl]-5-(2,3-dihydro-1,4-benzodioxin-6-yl)-1-methyl-imidazole-2-carboxamide]", "IC90": 0.52}]}, {"test_system": "Acinetobacter baumannii ATCC17961", "assay": "Antimicrobial susceptibility testing: 90% growth inhibitory concentration (IC90) determination", "format": "cell-based", "conditions": "ATCC17961, 16 h, read-out: ATCC 17961 IC90 [μM]", "description": "as §1, §2, §3, §4, §5, §6", "units": {"IC90": "µM"}, "values": [{"compound": "Cn1c(-c2c(F)ccc3[nH]ccc23)cnc1C(=O)Nc1ccc(C(=O)N2CCN(C(=O)C[C@@H]3CCNC3)CC2)c(Cl)c1", "note": "[Example A1, N-[3-chloro-4-[4-[2-[(3S)-pyrrolidin-3-yl]acetyl]piperazine-1-carbonyl]phenyl]-5-(5-fluoro-1H-indol-4-yl)-1-methyl-imidazole-2-carboxamide]", "IC90": 0.23}]}]}
